The values below come from PubChem BioAssay (NCI).

Common to all, as to assay: NCI anticancer screen, dose series, 48 h
The subject of test [1] is OVCAR-3 ovarian.
In test [2] the test system is SK-MEL-2 melanoma.
Test [3] concerns SNB-19 CNS.
The test system of test [4] is OVCAR-5 ovarian.
For test [5], the system named is UO-31 renal.
The subject of test [6] is OVCAR-4 ovarian.
The subject of test [7] is OVCAR-8 ovarian.
Test [8] has as its system UACC-62 melanoma.
In test [9] the test system is ACHN renal.
For test [10], the system named is HL-60(TB) leukemia.

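Following 48 hours of exposure in 96-well plates, responses at five concentrations were used to interpolate endpoints linearly. GI50: concentration for 50% inhibition of growth. TGI is the concentration that stops growth completely.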

As for `COc1ccc(C2CCc3cc4c(cc3/C2=N/OC(C)=O)OCO4)cc1OC` (configuration not stated), the TGI is 55.9 µM in test [1]; 64.7 µM in test [2]; above 100 µM in test [3]; above 100 µM in test [4]; 51.1 µM in test [5]; above 100 µM in [6]. Further, the TGI in test [7] was above 100 µM; in [8], 57.7 µM.

On to `CCOC(=O)[C@H]1Nc2ccccc2C2c3ccccc3CC21` (some centres not stated), for which the TGI in test [1], in test [2], in [3], in [4], in test [5] and in [6] was above 100 µM each time. In addition, the TGI in test [9], in test [7] and in [8] was above 100 µM throughout.

On to `C#CCN(Cc1ccc2nc(N)[nH]c(=O)c2c1)c1ccc(C(=O)NC(CCC(=O)O)C(=O)O)cc1` (configuration not stated), for which the TGI in [1], in test [3], in [4], in test [10], in test [5] and in test [9] was above 100 µM in each case. The TGI in test [7] is above 100 µM.

Regarding `CCCCCCCCCCCCOP(N)(=O)OCCCCCCCCCCCC`, the TGI in test [1], in test [3], in test [10], in [5], in test [9] and in test [7] was above 100 µM each time. Further, the TGI in [8] was above 100 µM.

Regarding `N#CC1C=Cc2ccccc2N1C(=O)Oc1ccccc1` (configuration not stated), the TGI in test [2] was 64.3 µM; in test [3], above 100 µM; in [4], above 100 µM; in test [10] it was 48.6 µM; in test [5], above 100 µM; in test [6] it was above 100 µM. Besides, the TGI in test [9], in test [7] and in test [8] was above 100 µM in each case.

With `CC1COCC(C)N1C1=C(Cl)C(=O)c2ccccc2C1=O` (configuration not stated), the GI50 in [1] is 1.56 µM; in test [3], 14.9 µM; in [4], 17 µM; in [10], 2.02 µM; in [5] it was 1.39 µM; in test [6], 1.61 µM. Further, the GI50 in test [9] is 1.66 µM; in test [7] it was 3.73 µM; in test [8] it was 5.85 µM. The TGI was 2.92 µM in [1]; 28.1 µM in [3]; 32 µM in test [4]; 5.03 µM in test [10]; 2.73 µM in test [5]; 3.03 µM in [6]. Besides, the TGI in test [9] was 3.06 µM; in test [7] it was 13.6 µM; in test [8], 18.8 µM.

As to `COc1cc2c(c(OC)c1OC)-c1ccc(SC)c(=O)cc1[C@@H](NC(=O)c1ccc(Cl)cc1)CC2`, the TGI is 2.64 µM in test [1]; 5.47 µM in test [2]; 11.1 µM in test [3]; below 0.01 µM in test [10]; 62.6 µM in [5]; above 100 µM in test [6]. The TGI in test [9] was above 100 µM; in test [7], above 100 µM; in test [8], 56.3 µM.

As to `O=C(Cc1csc2nc(-c3ccc(Br)cc3)cn12)N/N=C/c1ccc(O)cc1`, the GI50 was 24.2 µM in [1]; 26.1 µM in [2]; 57.5 µM in test [3]; 27.6 µM in test [4]; 26.3 µM in [5]; above 100 µM in [6]. The GI50 was 14.7 µM in test [9], 7.07 µM in test [7] and 9.11 µM in [8]. The TGI was 49.4 µM in [1]; 95.9 µM in test [2]; above 100 µM in test [3]; above 100 µM in test [4]; above 100 µM in [5]; above 100 µM in test [6]. Further, the TGI was 51 µM in test [9], 25.9 µM in [7] and 23.5 µM in [8].

Consider `FC1OC2OC1C(OCc1ccccc1)C(OCc1ccccc1)C2OCc1ccccc1` (configuration not stated), for which the TGI in [1] is above 100 µM; in [2], above 100 µM; in test [3], above 100 µM; in [4], above 100 µM; in test [10] it was 62.9 µM; in [5], above 100 µM. Further, the TGI in [6], in test [7] and in [8] was above 100 µM each time.

For `COc1nc(NC2OC(COC(C)=O)C(OC(C)=O)C(OC(C)=O)C2OC(C)=O)c(-c2csc(N)n2)c(=O)n1C` (configuration not stated), the TGI in test [1] is above 100 µM; in test [2], 90.2 µM; in [3], above 100 µM; in test [4], above 100 µM; in test [5] it was above 100 µM; in test [6], above 100 µM. For the same compound, the TGI in [9], in [7] and in [8] was above 100 µM in each case.

Take `CCOc1ccc(C(CN2CCOCC2)C(C)=O)cc1OC` (configuration not stated): the TGI was found to be 28.4 µM in test [2]; 32 µM in test [3]; 33.2 µM in test [4]; 17 µM in test [10]; 27.8 µM in [5]; 33.3 µM in [6]. The TGI in test [9] came to 27.3 µM; in test [7] it was 37.7 µM; in test [8], 32.8 µM.

`CC1CC2(C)CC(=O)C1C1C(=O)N(CCN3CCCCC3)C(=O)C12` (configuration not stated): the GI50 in test [2], in test [3], in [4], in [10], in test [5] and in [6] was above 100 µM throughout. Further, the GI50 in [9], in [7] and in test [8] was above 100 µM throughout. Also, the TGI in test [2], in test [3], in [4], in test [10], in test [5] and in test [6] was above 100 µM throughout. In addition, the TGI in [9], in test [7] and in test [8] was above 100 µM in each case.

For `CC(=O)Oc1ccc2c(c1)CC[C@@H]1C2CC[C@]2(C)C(=O)NC(=O)CC12` (some centres not stated), the TGI in test [1], in test [3], in [4], in [10], in [5] and in test [6] was above 100 µM in each case. Moreover, the TGI in [9], in test [7] and in test [8] was above 100 µM in each case.

On to `Cc1ccc(C(C)C)cc1NC(=O)Nc1ccc([N+](=O)[O-])cc1`, for which the GI50 in test [1] is 1.77 µM; in test [3] it was 2.99 µM; in [4], 2.92 µM; in [5], 1.54 µM; in [6], 3.44 µM; in test [9] it was 2.56 µM. For the same compound, the GI50 in test [7] was 3.19 µM; in test [8] it was 1.81 µM. For the same compound, the TGI in test [1] is 6.28 µM; in test [3], 12 µM; in test [4], 8.99 µM; in test [5] it was 5.79 µM; in [6], 13 µM; in test [9], 7.82 µM. In addition, the values for the TGI in test [7] and in test [8] were 11.6 µM and 10.2 µM, respectively.

Take `C/C=C1\C(=O)OC2CCN3CCC(COC(=O)C(C)(O)C(C)C1O)C23` (configuration not stated): the TGI in [2], in test [3], in test [4], in test [10], in test [5] and in test [6] was above 100 µM in each case. For the same compound, the TGI in test [9], in [7] and in test [8] was above 100 µM each time.

As to `O=C1c2ccccc2C(=O)c2nc3ccc(Cl)cc3cc21`, the TGI in [1], in test [2], in test [3], in [4], in test [5] and in [6] was above 100 µM throughout. Also, the TGI in [9], in test [7] and in test [8] was above 100 µM in each case.

Regarding `C[C@]12CC[C@H](OC3CCCCO3)CC1=CC[C@@H]1C2CC[C@]2(C)/C(=N/O)CCC12` (some centres not stated), the TGI in test [1] is 31.1 µM; in [2], 89.7 µM; in [3] it was 67.1 µM; in test [4] it was 75.6 µM; in test [5] it was above 100 µM; in [6] it was 39 µM. In addition, the TGI is 54.3 µM in test [9], 40.5 µM in [7] and above 100 µM in test [8].

Take `Oc1[nH]c2cc(Cl)ccc2c1/C=c1/ccc2c(c1)N=C(c1cc(F)cc(F)c1)N=2`: the GI50 is 1.41 µM in test [1]; 2.08 µM in test [2]; 6.22 µM in [3]; 6.34 µM in test [4]; 3.68 µM in test [5]; 4.25 µM in test [6]. Besides, the GI50 in test [9] was 4.99 µM; in [7], 2.92 µM; in test [8] it was 0.71 µM. The TGI is 3.3 µM in [1]; 7.03 µM in test [2]; 26.2 µM in test [3]; 21.5 µM in test [4]; 19 µM in test [5]; 16.1 µM in test [6]. Moreover, the TGI came out at 19.9 µM in [9], 10.3 µM in [7] and 12.4 µM in [8].

As for `O=c1cc(-c2ccccn2)[nH]c2ccc(Cl)cc12`, the GI50 in [1] was 63.7 µM. Besides, the TGI in test [1], in test [3], in [4], in test [10], in [5] and in test [6] was above 100 µM in each case. Also, the TGI in [9], in test [7] and in test [8] was above 100 µM throughout.

Take `CC(=O)OC1CC2C(=O)C(=O)C1(C)C2(C)C` (configuration not stated): the TGI in test [1], in test [3], in test [4], in test [5], in test [6] and in test [9] was above 100 µM throughout. Further, the TGI in test [7] and in test [8] was above 100 µM throughout.

Turning to `CSC1=NCC2(S1)c1ccccc1N(C(=O)OC(C)(C)C)C2N1CCCCC1` (configuration not stated), the GI50 in [2] is above 100 µM; in [4], above 100 µM; in [10], 63.7 µM; in test [5], 78.7 µM; in test [6] it was above 100 µM; in [7], above 100 µM. The GI50 in test [8] was 76.6 µM. Moreover, the TGI in test [2], in test [4], in test [10], in test [5], in test [6] and in [7] was above 100 µM in each case. Further, the TGI in test [8] was above 100 µM.

As to `CCN(CC)CCN(C(=O)C(C)(C)C)c1ccccc1N`, the TGI in [1], in test [3], in [4], in test [10], in test [5] and in [6] was above 100 µM each time. For the same compound, the TGI in test [9], in test [7] and in test [8] was above 100 µM each time.

Regarding `CC(=O)C1C(=O)N(C(C)C)C[C@@H]2CCC(=O)C[C@H]12` (some centres not stated), the TGI in test [1], in [2], in [3], in test [10], in [5] and in test [6] was above 100 µM throughout. Also, the TGI in [7] and in test [8] was above 100 µM each time.

On to `CC1OC(OC2CCC3(C=O)C4CCC5(C)C(C6=CC(=O)OC6)CCC5(O)C4CCC3(O)C2)C(O)C(O)C1O` (configuration not stated), for which the TGI worked out at 0.000326 µM in [2]; 0.0657 µM in test [3]; 0.000107 µM in [10]; 3.33e-05 µM in [6]; 6.36e-05 µM in [9]; 6.21e-05 µM in test [7]. Besides, the TGI in [8] was 0.000127 µM. For the same compound, the GI50 in test [4] was 0.0112 µM.
